Data on one substance can be found in patent US10870684B2, “Disintegrin variants and pharmaceutical uses thereof” (National Cheng Kung University, priority 2014, dated 2020).

A word on the IC50: it is the concentration needed to halve the response being measured. Higher therefore signals weaker potency in that assay.

For the assay, the system named is platelet aggregation that is mediated by αIIbβ3. In words: Inhibition of ADP-induced platelet aggregation in platelet-rich plasma. The assay is classed as cell-based. The following applies: PRP.

Protocol: Disintegrin (Rho) variants were also tested for their ability to inhibit platelet aggregation that is mediated by αIIbβ3. Venous blood (9 parts) samples from healthy donors who had not received any medication for at least two weeks were collected in 3.8% sodium citrate (1 part). Blood samples were centrifuged at 150×g for 10 min to obtain platelet-rich plasma (PRP) and allowed to stand for 5 min, and PRP was collected. The platelet-poor plasma (PPP) was prepared from the remaining blood by centrifuging at 2000×g for 25 min. The PPP platelet count was measured on a hematology analyzer and diluted to 250,000 platelets/μl. A solution of 190 μl of PRP and 10 μl of either Rho or PBS buffer were incubated for 5 min in a Hema Tracer 601 aggregometer at 37° C. Ten microliters of 200 μM adenosine diphosphate (ADP) were further added to monitor the response of platelet aggregation by light transmission.

As for “rhodostomin [Rho wild-type, reference compound]”, the IC50 was determined as 83.2 nM.
